Reference: patent US10770169B2, “Method of providing a treatment to a subject based on a dynamic pathway map” (THE REGENTS OF THE UNIVERSITY OF CALIFORNIA, priority 2010, dated 2020)
Like-named read-outs stand apart in the source and are kept apart here.

Test system: panel of 55 breast cancer cell lines
Test: Cell growth inhibition assay (Cell Titer Glo, 72 h, 9 doses; GI50, TGI, LC50)
Assay type: cell-based, human
Conditions: Homo sapiens, read-out: GI50 (converted)
[1] = HCC1954, HCC1954 cell line, censored GI50 values
[2] = ZR-75-1, ZR751 cell line, censored GI50 values

Measured: GI50

Cn1cnc2c(F)c(Nc3ccc(Br)cc3Cl)c(C(=O)NOCCO)cc21 [AZD6244]
28.8 µM: HCC1395, HCC1395 cell line, censored GI50 values | HCC1395, cell line HCC1395
50.1 µM: BT-20, cell line BT20 | BT-474, cell line BT474 | BT-483, cell line BT483 | CAMA-1, cell line CAMA1 | HCC38, cell line HCC38 | HCC1428, cell line HCC1428 | HCC1500, cell line HCC1500 | HCC1806, cell line HCC1806 | HCC1937, cell line HCC1937 | MCF7, cell line MCF7 | MDA-MB-231, cell line MDAMB231 | MDA-MB-361, cell line MDAMB361 | MDA-MB-415, cell line MDAMB415 | MDA-MB-436, cell line MDAMB436 | MDA-MB-453, cell line MDAMB453 | MDA-MB-468, cell line MDAMB468 | SK-BR-3, cell line SKBR3 | SUM185PE, cell line SUM185PE | T47D, cell line T47D | ZR-75B, cell line ZR75B | cell line HCC2185
6.17 µM: [2] | ZR-75-1, cell line ZR751
1.17 µM: MDA-MB-134-VI, MDAMB134VI cell line, censored GI50 values | cell line MDAMB134V
17.8 µM: HCC1419, HCC1419 cell line, censored GI50 values | HCC1419, cell line HCC1419
0.525 µM: SUM149PT, SUM149PT cell line, censored GI50 values | SUM149PT, cell line SUM149PT
9.77 µM: SUM52PE, SUM52PE cell line, censored GI50 values | SUM52PE, cell line SUM52PE
1.45 µM: [1] | HCC1954, cell line HCC1954
7.59 µM: SUM1315MO2, SUM1315MO2 cell line, censored GI50 values | cell line SUM1315MO
2.57 µM: MDA-MB-175-VII, MDAMB175VII cell line, censored GI50 values | cell line MDAMB175V

Nc1nc2[nH]cc(CCc3ccc(C(=O)N[C@@H](CCC(=O)O)C(=O)O)cc3)c2c(=O)[nH]1 [Pemetrexed]
204 µM: [2] | ZR-75-1, cell line ZR751
33.9 µM: MDA-MB-453, MDAMB453 cell line, censored GI50 values | MDA-MB-453, cell line MDAMB453
0.214 µM: [1] | HCC1954, cell line HCC1954
0.0209 µM: HCC202, HCC202 cell line, censored GI50 values | HCC202, cell line HCC202
2950 µM: AU565, cell line AU565 | BT-474, cell line BT474 | BT-483, cell line BT483 | BT-549, cell line BT549 | HCC38, cell line HCC38 | HCC70, cell line HCC70 | HCC1143, cell line HCC1143 | HCC1187, cell line HCC1187 | HCC1419, cell line HCC1419 | HCC1428, cell line HCC1428 | MCF7, cell line MCF7 | MDA-MB-157, cell line MDAMB157 | MDA-MB-436, cell line MDAMB436 | SUM52PE, cell line SUM52PE | SUM185PE, cell line SUM185PE | T47D, cell line T47D | UACC-812, cell line UACC812 | cell line HCC2185 | cell line HCC3153 | cell line MDAMB134V | cell line SUM1315MO
0.49 µM: MDA-MB-361, MDAMB361 cell line, censored GI50 values | MDA-MB-361, cell line MDAMB361
1480 µM: CAMA-1, CAMA1 cell line, censored GI50 values | CAMA-1, cell line CAMA1 | HCC1806, HCC1806 cell line, censored GI50 values | HCC1806, cell line HCC1806 | MDA-MB-468, MDAMB468 cell line, censored GI50 values | MDA-MB-468, cell line MDAMB468 | SK-BR-3, SKBR3 cell line, censored GI50 values | SK-BR-3, cell line SKBR3
155 µM: HCC1937, HCC1937 cell line, censored GI50 values | HCC1937, cell line HCC1937
0.468 µM: LY2 cell line, censored GI50 values | cell line LY2
0.501 µM: HCC1500, HCC1500 cell line, censored GI50 values | HCC1500, cell line HCC1500
